# Measurements from patent publication US20100120879A1, “INSECTICIDES AS SAFENER FOR FUNGICIDES WITH PHYTOTOXIC ACTION” (priority 2007, published 2010).
# Assays:
# wheat = wheat treated with the azole fungicide; F. Montfort et al., Pesticide Science 46(4), 1996; cited from earlier work
# [1] = system: soybeans, variety "Conquista"; test: Vitality of the plants 14 days after sowing (visual score); conditions: visual scale 0 to 10, untreated = 5, each point = 20% improvement or deterioration, triticonazole 50 g, fipronil 50 g, gibberellic acid 1 g a.s. per 100 kg seeds
# Phakopsora pachyrhizi = test: Fungicidal activity against soybean rust after seed treatment; format: in vivo; conditions: triticonazole 50 g, fipronil 50 g, gibberellic acid 1 g a.s. per 100 kg seeds
smiles,measurement,setting,value
"CC1(C)CCC(=Cc2ccc(Cl)cc2)C1(O)Cn1cncn1 (centres unmarked) [Triticonazole, triticonazole]",Longitudinal growth of treated wheat,wheat,greatly reduced longitudinal growth
same,Vitality,[1],2
same,Infection (percentage of diseased leaf area),"Phakopsora pachyrhizi; leaves in the middle part of the plant, 35 days after sowing, untreated 10.5",9%
same,Infection (percentage of diseased leaf area),"Phakopsora pachyrhizi; lower part of the plant, 21 days after sowing, untreated 8.5",0%
same,Infection (percentage of diseased leaf area),"Phakopsora pachyrhizi; lower part of the plant, 35 days after sowing, untreated 70",47%
